Laboratory results published in PubChem BioAssay (NCI).
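1) Cells in 96-well plates. 2) Compound, 48 h, 5 concentrations. 3) Linear interpolation between surrounding doses. 4) Unreached endpoint = highest concentration. Here, GI50 denotes the concentration required for 50% inhibition of growth. The concentration for full growth arrest is given as TGI.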

Legend:
Assay in all cases: inhibition of tumour cell growth, NCI panel, 48 h
A498 renal = test system: A498 renal
RXF 393 renal = test system: RXF 393 renal
OVCAR-8 ovarian = test system: OVCAR-8 ovarian
SK-OV-3 ovarian = test system: SK-OV-3 ovarian
A549 NSCLC = test system: A549 NSCLC
UACC-257 melanoma = test system: UACC-257 melanoma
OVCAR-5 ovarian = test system: OVCAR-5 ovarian
SNB-19 CNS = test system: SNB-19 CNS
NCI/ADR-RES ovarian = test system: NCI/ADR-RES ovarian
MDA-MB-231 breast = test system: MDA-MB-231 breast

| Compound | GI50 (A498 renal) [µM] | TGI (A498 renal) [µM] | GI50 (RXF 393 renal) [µM] | TGI (RXF 393 renal) [µM] | GI50 (OVCAR-8 ovarian) [µM] | TGI (OVCAR-8 ovarian) [µM] | GI50 (SK-OV-3 ovarian) [µM] | TGI (SK-OV-3 ovarian) [µM] | GI50 (A549 NSCLC) [µM] | TGI (A549 NSCLC) [µM] | GI50 (UACC-257 melanoma) [µM] | TGI (UACC-257 melanoma) [µM] | GI50 (OVCAR-5 ovarian) [µM] | TGI (OVCAR-5 ovarian) [µM] | GI50 (SNB-19 CNS) [µM] | TGI (SNB-19 CNS) [µM] | GI50 (NCI/ADR-RES ovarian) [µM] | TGI (NCI/ADR-RES ovarian) [µM] | GI50 (MDA-MB-231 breast) [µM] | TGI (MDA-MB-231 breast) [µM] |
| --- | --- | --- | --- | --- | --- | --- | --- | --- | --- | --- | --- | --- | --- | --- | --- | --- | --- | --- | --- | --- |
| CC(=O)[CH-]C(=O)c1ccccc1.CC(=O)[CH-]C(=O)c1ccccc1.CC(=O)[CH-]C(=O)c1ccccc1.[Ga+3] | 24.7 | 45.6 | 29.1 | 48 | 14.8 | 29.2 | 20.1 | 38.2 | 34.4 | > 100 | 16.2 | 31.5 | 26.5 | 66.8 | 39.1 | > 100 |  |  |  |  |
| CC(=O)C1C(=O)C(=O)N(CCN2C(=O)C(=O)C(C(C)=O)C2=O)C1=O (configuration not stated) |  | > 100 |  | > 100 |  | > 100 |  | > 100 |  |  |  | > 100 |  | > 100 |  | > 100 |  |  |  |  |
| CCN(CC)C(=S)SS(C)(=O)=O |  |  |  | 23.4 |  | 39.4 |  | > 100 |  |  |  | 52.3 |  | 42.2 |  | 58.4 |  |  |  |  |
| CCOCCOCCOCCOCCOCCOCCOCCOCCOCCO (tested in a mixture with another compound) | 1.08 | 19.1 | 1.85 | 8.88 | 0.871 | 4.36 | 3.91 | 13.4 | 1.21 | 8.66 | 0.739 | 2.73 |  |  |  |  | 3.96 | > 32.5 |  |  |
| CC(=O)OCC1OC(n2c(=S)n(-c3ccccc3)c(=O)c3cc(Br)ccc32)C(OC(C)=O)C1OC(C)=O (configuration not stated) |  | > 100 |  | > 100 |  | > 100 |  | > 100 |  | > 100 |  | > 100 |  | > 100 |  | > 100 |  |  |  |  |
| Cc1cc(Br)ccc1N=Nc1c(C)nn(-c2ccccc2)c1-c1ccccc1 |  | > 100 |  | > 100 |  | > 100 |  | > 100 |  | > 100 |  | > 100 |  | > 100 |  | > 100 |  |  |  |  |
| Cc1ccc(S(=O)(=O)NNS(C)(=O)=O)cc1 |  |  |  | > 100 |  | > 100 |  |  |  | > 100 |  | > 100 |  |  |  | > 100 |  |  |  |  |
| O=C1C(Cl)=C(NCCCN(CCCNC2=C(Cl)C(=O)c3ccccc3C2=O)C2=C(Cl)C(=O)c3ccccc3C2=O)C(=O)c2ccccc21 | 19.6 | 39.4 | 10.7 | 22.5 | 3 | 10.5 | 18.4 | 37.9 | 3.43 | > 100 |  |  | 4.85 | 17.2 | 3.79 | 18.9 | 4.06 | > 100 | 1.93 |  |
| N#Cc1ccc(C2SCc3nc4ccccc4n32)cc1 (configuration not stated) |  | > 100 |  | > 100 |  | > 100 |  | > 100 |  | > 100 |  | > 100 |  |  |  | > 100 |  |  |  |  |
| O=C(N/C(=C\c1ccc(/C=C(\NC(=O)c2ccccc2)c2nc3c(O)nc(S)nc3[nH]2)cc1)c1nc2c(O)nc(S)nc2[nH]1)c1ccccc1 |  | > 100 |  | > 100 |  | > 100 |  | > 100 |  | > 100 |  | > 100 |  | > 100 |  | > 100 |  |  |  |  |
| O=C(C(=CN1CCN(C(=O)c2ccco2)C1=S)C(=O)c1ccccc1)c1ccccc1 |  |  | 5.84 | 14.8 | 16.2 | 41.4 | 41.8 | > 50 | 11.3 | 29.1 | 11.7 | 21.4 |  |  | 29.2 | > 50 | 9.18 | 19 | 7.41 | 20.1 |
| NC(=O)c1ncn(C2OC(CO)C(O)C2O)c1O (configuration not stated) |  | > 100 |  | > 100 |  | > 100 |  |  |  | > 100 |  |  |  | > 100 |  | > 100 |  |  |  |  |
| Clc1ccc(-c2nc(NCc3ccco3)c3ccccc3n2)c(Cl)c1 | 22 | 41 | 20.4 | 43.1 | 24.2 | 82.7 | 18.6 | > 100 | 20.1 | 49.1 |  |  | 40.1 | > 100 | 38.4 | > 100 | 26.3 | > 100 |  |  |
| CCN(CC)c1c(C)nnn1C1OC(COC(C)=O)C(OC(C)=O)C(OC(C)=O)C1OC(C)=O (configuration not stated) |  | > 100 |  |  |  | > 100 |  | > 100 |  | > 100 |  | > 100 |  | > 100 |  | > 100 |  |  |  |  |
| Cc1c(C(N)=O)sc2nc(C)n(/N=c3\scc(-c4ccccc4)n3Cc3ccccc3)c(=O)c12 | 2.53 | 8.97 |  |  | 3.49 | > 100 | 4.51 | > 100 | 3.79 | > 100 | 3.56 | 24.3 | 4.33 | > 100 | 4.8 | > 100 | 2.9 | 29.2 | 3.28 | 8.41 |
| CCC(=O)Nc1nnc(Cc2ccc(OC)c(OC)c2)s1 | > 100 | > 100 |  |  | > 100 | > 100 | > 100 | > 100 | > 100 | > 100 | > 100 | > 100 | > 100 | > 100 | > 100 | > 100 | > 100 | > 100 | > 100 | > 100 |
| CCCCOC(=O)NC(=O)c1cn(CCCOC(=O)CCCCCCCCC(=O)OCCCn2cc(C(=O)NC(=O)OCCCC)c(=O)n(C)c2=O)c(=O)n(C)c1=O |  | > 100 |  | > 100 |  | > 100 |  |  |  | > 100 |  | > 100 |  | > 100 |  | > 100 |  |  |  |  |
| C=CCSC(C)=O |  | > 100 |  |  |  | > 100 |  | > 100 |  | > 100 |  |  |  | > 100 |  | > 100 |  | > 100 |  | > 100 |
| O=C(Oc1c(Cl)cc(Cl)cc1Cl)c1ccccc1Nc1ccnc(C(F)(F)F)c1 |  |  | 9.47 | > 100 | 3.04 | 49.9 |  |  | 3.9 | 71.5 | 12.2 | 57.3 | 4.1 | 16.5 | 7.07 | > 100 |  |  | 3.25 | 18.9 |
| Cc1ccc(Nc2nc(-c3ccc(-c4ccc([N+](=O)[O-])cc4)o3)cs2)cc1 |  |  |  |  |  | > 100 |  | > 100 |  | > 100 |  | 90 |  | > 100 |  | > 100 |  |  |  |  |
